Results reported in patent US8906925B2, “Pyrido[4,3-B]indoles containing rigid moieties” (Medivation Technologies, Inc., priority 2008, dated 2014).

Columns and labels:
[1] = biological target: histamine receptor H1 (Homo sapiens, UniProt P35367); test: Histamine H1 radioligand binding ([3H]Pyrilamine); details: read-out: Histamine Binding (1 μM) H1, percent inhibition of specific binding, 1 μM
Procedure: To evaluate in radioligand binding assays the activity of compounds of the invention, human recombinant histamine H1 receptor expressed in Chinese hamster ovary (CHO) cells (De Backer, M. D. et al., Biochem. Biophys. Res. Comm. 197(3):1601, 1993) in a modified Tris-HCl buffer (50 mM Tris-HCl, pH 7.4, 2 mM MgCl2, 100 mM NaCl, 250 mM Sucrose) was used. Compounds of the invention were incubated with 1.2 nM [^3H]Pyrilamine for 180 min. at 25° C. Non-specific binding was estimated in the presence of 1 μM pyrilamine. Receptor proteins were filtered and washed, the filters were then counted to determine [^3H]Pyrilamine specifically bound. Compounds were screened at 1 μM or lower, using 1% DMSO as vehicle. Biochemical assay results are presented as the percent inhibition of specific binding in Table 8.

[2] = biological target: human dopamine D2L receptor (Homo sapiens, UniProt P14416); test: Dopamine D2L radioligand binding ([3H]Spiperone); details: compound at 1 μM; […] [3H]Spiperone; read-out: Inhibition of ligand binding, Dopamine D2L (percent inhibition of specific binding)
Chain of human dopamine D2L receptor (P14416 whole entry): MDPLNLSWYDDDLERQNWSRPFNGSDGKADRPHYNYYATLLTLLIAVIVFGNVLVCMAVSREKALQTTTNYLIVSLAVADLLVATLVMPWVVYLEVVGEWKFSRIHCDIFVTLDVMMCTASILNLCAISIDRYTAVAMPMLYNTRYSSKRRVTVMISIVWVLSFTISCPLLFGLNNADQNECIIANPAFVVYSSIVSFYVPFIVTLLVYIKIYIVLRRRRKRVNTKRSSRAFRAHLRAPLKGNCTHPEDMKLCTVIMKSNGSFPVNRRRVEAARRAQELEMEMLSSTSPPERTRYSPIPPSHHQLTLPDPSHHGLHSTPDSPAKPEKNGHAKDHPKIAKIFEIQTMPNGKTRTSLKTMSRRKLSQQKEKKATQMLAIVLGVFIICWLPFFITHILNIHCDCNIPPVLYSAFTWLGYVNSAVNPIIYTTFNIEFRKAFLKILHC
Source text: Non-specific binding was estimated in the presence of […] Haloperidol. Receptor proteins were filtered and washed, the filters were then counted to determine [^3H]Spiperone specifically bound. […] Biochemical assay results are presented as the percent inhibition of specific binding in Table 9.

Chain of histamine receptor H1 (P35367 whole entry): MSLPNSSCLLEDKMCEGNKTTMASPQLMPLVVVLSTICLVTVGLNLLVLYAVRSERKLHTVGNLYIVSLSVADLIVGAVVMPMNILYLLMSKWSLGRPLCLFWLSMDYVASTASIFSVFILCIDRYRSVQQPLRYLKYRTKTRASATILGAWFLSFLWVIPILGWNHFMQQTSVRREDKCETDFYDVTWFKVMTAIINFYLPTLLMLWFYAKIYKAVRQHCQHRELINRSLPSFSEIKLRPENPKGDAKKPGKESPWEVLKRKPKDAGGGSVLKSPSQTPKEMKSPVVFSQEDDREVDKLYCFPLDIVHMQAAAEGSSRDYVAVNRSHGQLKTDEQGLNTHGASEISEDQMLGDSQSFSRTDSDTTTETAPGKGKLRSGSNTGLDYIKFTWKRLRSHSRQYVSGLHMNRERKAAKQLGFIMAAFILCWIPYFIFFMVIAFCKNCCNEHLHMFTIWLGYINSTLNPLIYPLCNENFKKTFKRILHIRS

inhibition at 1 µM [1] [%] | inhibition at 1 µM [2] [%] | Compound
68 | 60 | Cc1ccc2c(c1)c1c(n2C#Cc2ccoc2)CCN(C)C1 [Compound No. 492, 5-(furan-3-ylethynyl)-2,8-dimethyl-2,3,4,5-tetrahydro-1H-pyrido[4,3-b]indole]
69 | 56 | Cc1ccc2c(c1)c1c(n2C#Cc2cccs2)CCN(C)C1 [Compound No. 493, 2,8-dimethyl-5-(thiophen-2-ylethynyl)-2,3,4,5-tetrahydro-1H-pyrido[4,3-b]indole]
2 | 13 | COc1ccc(C#Cn2c3c(c4cc(C)ccc42)CN(C)CC3)cn1 [Compound No. 494, 5-((6-methoxypyridin-3-yl)ethynyl)-2,8-dimethyl-2,3,4,5-tetrahydro-1H-pyrido[4,3-b]indole]
52 | 58 | Cc1ccc2c(c1)c1c(n2C#Cc2ccncc2)CCN(C)C1 [Compound No. 495, 2,8-dimethyl-5-(pyridin-4-ylethynyl)-2,3,4,5-tetrahydro-1H-pyrido[4,3-b]indole]
15 | 25 | Cc1ccc2c(c1)c1c(n2C#Cc2ccc(C3CC3)nc2)CCN(C)C1 [Compound No. 496, 5-((6-cyclopropylpyridin-3-yl)ethynyl)-2,8-dimethyl-2,3,4,5-tetrahydro-1H-pyrido[4,3-b]indole]
17 | 14 | Cc1ccc2c(c1)c1c(n2C#Cc2cncn2C)CCN(C)C1 [Compound No. 497, 2,8-dimethyl-5-((1-methyl-1H-imidazol-5-yl)ethynyl)-2,3,4,5-tetrahydro-1H-pyrido[4,3-b]indole]
65 | 9 | Cc1ccc2c(c1)c1c(n2C#Cc2cscn2)CCN(C)C1 [Compound No. 498, 4-((2,8-dimethyl-3,4-dihydro-1H-pyrido[4,3-b]indol-5(2H)-vyl)ethynyl)thiazole]
26 | 18 | Cc1ccc2c(c1)c1c(n2C#Cc2ccncn2)CCN(C)C1 [Compound No. 499, 2,8-dimethyl-5-(pyrimidin-4-ylethynyl)-2,3,4,5-tetrahydro-1H-pyrido[4,3-b]indole]
66 | 91 | C/C(=C/n1c2c(c3cc(Cl)ccc31)CN(C)CC2)c1ccncc1 [compound 384, (Z)-8-chloro-2-methyl-5-(2-(pyridin-4-yl)prop-1-enyl)-2,3,4,5-tetrahydro-1H-pyrido[4,3-b]indole]
68 | 51 | C/C(=C\n1c2c(c3cc(Cl)ccc31)CN(C)CC2)c1cnc(C)cn1 [compound 385, (E)-8-chloro-2-methyl-5-(2-(5-methylpyrazin-2-yl)prop-1-enyl)-2,3,4,5-tetrahydro-1H-pyrido[4,3-b]indole]
8 | 25 | C/C(=C\n1c2c(c3cc(C)ccc31)CN(C)CC2)c1cnc(C)cn1 [compound 386, (E)-2,8-dimethyl-5-(2-(5-methylpyrazin-2-yl)prop-1-enyl)-2,3,4,5-tetrahydro-1H-pyrido[4,3-b]indole]
84 | 99 | C/C(=C\n1c2c(c3cc(C)ccc31)CN(C)CC2)c1ccsc1 [compound 387, (E)-2,8-dimethyl-5-(2-(thiophen-3-yl)prop-1-enyl)-2,3,4,5-tetrahydro-1H-pyrido[4,3-b]indole]
100 | 99 | C/C(=C\n1c2c(c3cc(Cl)ccc31)CN(C)CC2)c1ccsc1 [compound 388, (E)-8-chloro-2-methyl-5-(2-(thiophen-3-yl)prop-1-enyl)-2,3,4,5-tetrahydro-1H-pyrido[4,3-b]indole]
39 | 49 | C/C(=C\n1c2c(c3cc(C)ccc31)CN(C)[C@@H](C)C2)c1ccncc1 [compound 389, (S,E)-2,3,8-trimethyl-5-(2-(pyridin-4-yl)prop-1-enyl)-2,3,4,5-tetrahydro-1H-pyrido[4,3-b]indole]
